# Measured values from ChEMBL document CHEMBL5647692, “The novel dual PI3K/mTOR inhibitor NVP-BGT226 displays cytotoxic activity in both normoxic and hypoxic hepatocarcinoma cells” (Oncotarget, 2015).
# Activity calls are given as the source filed them. No cut-off for these calls is given here.
# What was measured:
# Mahlavu [1] = assay: Cytotoxicity against human Mahlavu cells assessed as reduction in cell viability incubated for 24 hrs under hypoxia condition by MTT assay; format: functional, cell-based
# Mahlavu [2] = assay: Induction of apoptosis in human Mahlavu cells assessed as early apoptotic cells at IC50 incubated for 24 hrs in presence of Z-VAD-fmk by Annexin-V/7-AAD staining based muse cell analyzer method (reference value: 6.57 %); format: functional
# Hep 3B2 [3] = assay: Induction of cell cycle arrest in human Hep3B cells assessed as decrease in accumulation of cells in G2/M phase incubated at 0.01 to 0.1 uM for 24 hrs by propidium iodide staining based muse cell analysis; format: functional; details: dose 0.01-0.1 µM
# SNU-475 [4] = assay: Cytotoxicity against human SNU-475 cells assessed as reduction in cell viability incubated for 24 hrs under hypoxia condition by MTT assay; format: functional, cell-based
# SNU-475 [5] = assay: Cytotoxicity against human SNU-475 cells assessed as reduction in cell viability at 0.5 uM incubated for 24 hrs in presence of chloroquine by MTT assay; format: functional, cell-based
# SNU-475 [6] = assay: Induction of autophagy in human SNU-475 cells assessed as increase in lipidation of LC3I to LC3II at 0.5 uM incubated for 24 hrs by Western blot analysis; format: functional, cell-based
# SNU-475 [7] = assay: Induction of autophagy in human SNU-475 cells assessed as decreased expression of SQSTM1/p62 level incubated for 24 hrs under hypoxia condition by Western blot analysis; format: functional, cell-based; details: dose 0.1-0.5 µM
# [8] = Inhibition of PI3K/Akt/mTOR signaling pathway in human SNU-449 cells assessed as reduction in phosphorylation of Akt incubated for 1 hr under normoxia condition by Western blotting analysis; format: cell-based; details: dose 0.25-1 µM
# SNU-449 [9] = assay: Cytotoxicity against human SNU-449 cells assessed as reduction in cell viability incubated for 24 hrs under normoxia condition by MTT assay; format: functional, cell-based
# SNU-475 [10] = assay: Induction of autophagy in human SNU-475 cells assessed as increased expression of LC3A/B II level incubated for 24 hrs under hypoxia condition by Western blot analysis; format: functional, cell-based; details: dose 0.1-0.5 µM
# SNU-449 [11] = assay: Induction of apoptosis in human SNU-449 cells assessed as early apoptotic cells at IC50 concentration incubated for 24 hrs in presence of Z-VAD-fmk by Annexin-V/7-AAD staining based muse cell analyzer method (reference value: 3.95 %); format: functional
# SNU-475 [12] = assay: Induction of apoptosis in human SNU-475 cells assessed as cleaved Caspase 7 level at 0.5 uM incubated for 24 hrs by Western blotting analysis; format: functional, cell-based
# SNU-475 [13] = assay: Cytotoxicity against human SNU-475 cells assessed as reduction in cell viability incubated for 24 hrs under normoxia condition by MTT assay; format: functional, cell-based
# Mahlavu [14] = assay: Induction of apoptosis in human Mahlavu cells assessed as necrotic cells at IC50 incubated for 24 hrs in presence of Z-VAD-fmk by Annexin-V/7-AAD staining based muse cell analyzer method (reference value: 0.67 %); format: functional
# Mahlavu [15] = assay: Induction of apoptosis in human Mahlavu cells incubated for 24 hrs by Annexin-V/7-AAD staining based muse cell analyzer method; format: functional; details: dose 0.01-0.5 µM
# Mahlavu [16] = assay: Induction of autophagy in human Mahlavu cells assessed as increase in LC3I to LC3II conversion at 0.5 uM incubated for 24 hrs under hypoxia condition by Western blot analysis; format: functional, cell-based
# Mahlavu [17] = assay: Cytotoxicity against human Mahlavu cells assessed as reduction in cell viability at 0.5 uM incubated for 24 hrs in presence of 3-Methyladenine under hypoxia condition by MTT assay; format: functional, cell-based
# Hep 3B2 [18] = assay: Cytotoxicity against human Hep3B cells assessed as reduction in cell viability incubated for 48 hrs by MTT assay; format: functional, cell-based
# [19] = Inhibition of PI3K/Akt/mTOR signaling pathway in human Hep3B cells assessed as reduction in phosphorylation of GSK3 alpha/beta incubated for 1 hr under normoxia condition by Western blotting analysis; format: cell-based; details: dose 0.25-1 µM
# SNU-475 [20] = assay: Induction of apoptosis in human SNU-475 cells incubated for 24 hrs by Annexin-V/7-AAD staining based muse cell analyzer method; format: functional; details: dose 0.01-0.5 µM
# SNU-449 [21] = assay: Induction of apoptosis in human SNU-449 cells assessed as early apoptotic cells at 1.5 uM incubated for 24 hrs by Annexin-V/7-AAD staining based muse cell analyzer method (reference value: 3.95 %); format: functional
# Mahlavu [22] = assay: Induction of apoptosis in human Mahlavu cells assessed as necrotic cells at 0.66 uM incubated for 24 hrs by Annexin-V/7-AAD staining based muse cell analyzer method (reference value: 0.67 %); format: functional
# [23] = Inhibition of PI3K/Akt/mTOR signaling pathway in human SNU-449 cells assessed as reduction in phosphorylation of Akt at 0.001 to 0.01 uM incubated for 1 hr under hypoxia condition by Western blotting analysis; format: cell-based; details: dose 0.001-0.01 µM
# Mahlavu [24] = assay: Cytotoxicity against human Mahlavu cells assessed as reduction in cell viability incubated for 24 hrs under normoxia condition by MTT assay; format: functional, cell-based
# Hep 3B2 [25] = assay: Induction of cell cycle arrest in human Hep3B cells assessed as decrease in accumulation of cells in S phase incubated at 0.01 to 0.1 uM for 24 hrs by propidium iodide staining based muse cell analysis; format: functional; details: dose 0.01-0.1 µM
# [26] = Inhibition of PI3K/Akt/mTOR signaling pathway in human SNU-475 cells assessed as reduction in phosphorylation of mTORC1/2 incubated for 1 hr under normoxia condition by Western blotting analysis; format: cell-based; details: dose 0.25-1 µM
# SNU-475 [27] = assay: Induction of autophagy in human SNU-475 cells assessed as increase expression of LC3 A/B II at 0.5 uM incubated for 24 hrs in presence of chloroquine under hypoxia condition by Western blot analysis; format: functional, cell-based
# Mahlavu [28] = assay: Induction of apoptosis in human Mahlavu cells assessed as cleaved Caspase 7 level at 0.5 uM incubated for 24 hrs by Western blotting analysis; format: functional, cell-based
# [29] = Inhibition of PI3K/Akt/mTOR signaling pathway in human Mahlavu cells assessed as reduction in phosphorylation of Akt incubated for 1 hr under normoxia condition by Western blotting analysis; format: cell-based; details: dose 0.25-1 µM
# Mahlavu [30] = assay: Induction of cell cycle arrest in human Mahlavu cells assessed as decrease in accumulation of cells in S phase incubated at 0.01 to 0.1 uM for 24 hrs by propidium iodide staining based muse cell analysis; format: functional; details: dose 0.01-0.1 µM
# SNU-449 [31] = assay: Cytotoxicity against human SNU-449 cells assessed as reduction in cell viability at 0.5 to 5 uM incubated for 24 hrs by MTT assay; format: functional, cell-based; details: dose 0.5-5 µM
# Hep 3B2 [32] = assay: Cytotoxicity against human Hep3B cells assessed as reduction in cell viability incubated for 24 hrs under normoxia condition by MTT assay; format: functional, cell-based
# HepG2 = assay: Cytotoxicity against human HepG2 cells assessed as reduction in cell viability incubated for 48 hrs by MTT assay; format: functional, cell-based; details: HepG2, 48 h
# Hep 3B2 [33] = assay: Anti-tumor activity against human Hep3B cells assessed as reduction of VEGF level incubated for 24 hrs under hypoxia condition by Western blot analysis; format: functional, cell-based; details: dose 0.01-0.1 µM
# [34] = Inhibition of PI3K/Akt/mTOR signaling pathway in human Mahlavu cells assessed as reduction in S6 phosphorylation at 1 to 10 nM incubated for 1 hr under normoxia condition by Western blotting analysis; format: cell-based; details: dose 1-10 nM
# [35] = Inhibition of PI3K/Akt/mTOR signaling pathway in human SNU-475 cells assessed as reduction in phosphorylation of Akt incubated for 1 hr under normoxia condition by Western blotting analysis; format: cell-based; details: dose 0.25-1 µM
compound,measurement,setting,value
COc1ccc(-c2ccc3ncc4c(c3c2)n(-c2ccc(N3CCNCC3)c(C(F)(F)F)c2)c(=O)n4C)cn1 [BGT-226 FREE BASE],Activity,Mahlavu [1],Active
same,Activity,Mahlavu [2],11.97%
same,Activity,Hep 3B2 [3],Active
same,Activity,SNU-475 [4],Active
same,Activity,SNU-475 [5],Active
same,Activity,SNU-475 [6],Active
same,Activity,SNU-475 [7],Dose-Dependent Effect
same,inhibition,[8],Dose-Dependent Effect
same,Activity,SNU-449 [9],Active
same,Activity,SNU-475 [10],Dose-Dependent Effect
same,Activity,SNU-449 [11],11.94%
same,Activity,SNU-475 [12],Active
same,Activity,SNU-475 [13],Active
same,Activity,Mahlavu [14],0.54%
same,Activity,Mahlavu [15],Dose-Dependent Effect
same,Activity,Mahlavu [16],Dose-Dependent Effect
same,Activity,Mahlavu [17],Active
same,IC50,Hep 3B2 [18],1220 nM
same,inhibition,[19],Dose-Dependent Effect
same,Activity,SNU-475 [20],Dose-Dependent Effect
same,Activity,SNU-449 [21],18.2%
same,Activity,Mahlavu [22],0%
same,inhibition,[23],Active
same,Activity,Mahlavu [24],Active
same,Activity,Hep 3B2 [25],Active
same,inhibition,[26],Dose-Dependent Effect
same,Activity,SNU-475 [27],Active
same,Activity,Mahlavu [28],Active
same,inhibition,[29],Dose-Dependent Effect
same,Activity,Mahlavu [30],Active
same,Activity,SNU-449 [31],Active
same,Activity,Hep 3B2 [32],Active
same,IC50,HepG2,1350 nM
same,Activity,Hep 3B2 [33],Dose-Dependent Effect
same,inhibition,[34],Active
same,inhibition,[35],Dose-Dependent Effect
